Several values for one entry are separate records, joined by “and”; a condition that tells them apart may be missing. Equal entries are not always repeated.
Legend:
[1] = Pharmacokinetics of Compound I in human plasma: plasma concentrations of Compound I and tenofovir; type: in vivo; design: unit not given here; conditions: single oral 5 mg dose of Compound I, individual subjects
Method: The pharmacokinetics of Compound I in human plasma was also evaluated. Plasma concentrations of Compound I and tenofovir (TFV) were measured at various time points up to 24 h after oral administration of a single 5 mg dose of Compound I. The results are summarized in Table 2.

[2] = Phase I clinical trial with healthy adults: safety, blood pressure, ECG; type: in vivo, human; conditions: healthy subjects
Method: Eight healthy subjects were given Compound I orally at a daily dose of 5 mg for administration periods of between 9 and 14 days. […] Additionally, a placebo was administered to four healthy subjects for administration periods of between 9 and 14 days. The subjects were evaluated for changes in baseline blood pressure (FIGS. 1A and 1B: Changes in systolic and diastolic blood pressure, respectively, after administration of 5 mg of Compound I; FIGS. 2A and 2B: Changes in systolic and diastolic blood pressure, respectively, after administration of 10 mg of Compound I; FIGS. 3A and 3B: Changes in systolic and diastolic blood pressure, respectively, after administration of placebo). Furthermore, electrocardiograms (ECGs) were recorded to evaluate the change in baseline of heart rate, RR intervals, PR intervals, QRS duration and QTcF in each subject (FIGS. 4A and 4B: Changes in heart rate and RR interval, respectively, after administration of 5 mg of Compound I; FIGS. 5A and 5B: Changes in heart rate and RR interval, respectively, after administration of 10 mg of Compound I; FIGS. 6A and 6B: Changes in heart rate and RR interval, respectively, after administration of placebo; FIGS. 7A, 7B, and 7C: Changes in PR interval, QRS duration, and QTcF duration, respectively, after administration of 5 mg of Compound I; FIGS. 8A, 8B and 8C: Changes in PR interval, QRS duration, and QTcF duration, respectively, after administration of 10 mg of Compound I; FIGS. 9A, 9B and 9C: Changes in PR interval, QRS duration, and QTcF duration, respectively, after administration of placebo). In the Figures, as well as in Table 2 below, individual subjects are identified by 6-digit numbers. Subjects that were administered 5 mg of Compound I, 10 mg of Compound I, or a placebo, were monitored for between 15 and 18 days, between 9 and 11 days, or between 9 and 18 days after initiation of the study, respectively. […] The baselines are defined as the last variable assessment prior to initiation of the study.

[3] = 5 mg or 10 mg daily, dose groups and placebo not told apart

In the case of `C[C@H](Cn1cnc2c(N)ncnc21)OCP(=O)(O)O` [TFV, tenofovir], the “Pharmacokinetic plasma concentration of TFV” value ([1]; 0.5 hours post-dose) was “<LLOQ < (0.500)”, the “Pharmacokinetic plasma concentration of TFV” value ([1]; 1 hour post-dose) was “<LLOQ < (0.500)” and the “Pharmacokinetic plasma concentration of TFV” value ([1]; 2 hours post-dose) was 0.519 and <LLOQ < (0.500) (4×) and 0.528 and 0.733. For the same molecule, the “Pharmacokinetic plasma concentration of TFV” value ([1]; 2.5 hours post-dose) was 0.822 and 0.693 and 0.665 and 0.708 and 0.596 and <LLOQ < (0.500) and 0.959, the “Pharmacokinetic plasma concentration of TFV” value ([1]; 3 hours post-dose) was 0.891 and <LLOQ < (0.500) (2×) and 0.764 and 0.900 and 0.781 and 0.648 and 0.918 and the “Pharmacokinetic plasma concentration of TFV” value ([1]; 4 hours post-dose) was 1.140 (2×) and <LLOQ < (0.500) and 0.900 and 0.948 and 0.750 and 0.594 and 0.903. The “Pharmacokinetic plasma concentration of TFV” value ([1]; 6 hours post-dose) was 1.370 and 0.560 and 0.908 and 1.110 and 1.080 and 0.711 and 0.609 and 0.804, the “Pharmacokinetic plasma concentration of TFV” value ([1]; 10 hours post-dose) was 1.300 and 0.526 and 0.695 and 0.800 and 0.652 and 0.516 and 0.558 and 0.659 and the “Pharmacokinetic plasma concentration of TFV” value ([1]; 12 hours post-dose) was 1.140 and <LLOQ < (0.500) (4×) and 0.535 and 0.664 and 0.574. For the same molecule, the “Pharmacokinetic plasma concentration of TFV” value ([1]; 15 hours post-dose) was 1.040 and <LLOQ < (0.500) (6×) and 0.581, the “Pharmacokinetic plasma concentration of TFV” value ([1]; 18 hours post-dose) was 0.759 and <LLOQ < (0.500) (7×) and the “Pharmacokinetic plasma concentration of TFV” value ([1]; 24 hours post-dose) was 0.599 and <LLOQ < (0.500) (7×). For the same molecule, the “Pharmacokinetic plasma concentration of TFV” value ([1]; Pre-dose) was “<LLOQ < (0.500)”.
For `CCCCCCCCCCCCCCCCOCCCOP(=O)(O)CO[C@H](C)Cn1cnc2c(N)ncnc21` [Compound I, 3-(hexadecyloxy)propyl hydrogen ((R)-1-(6-amino-9H-purin 9-yl)propan-2-yloxy)methylphosphonate], the Adverse events reported [2, 3] was “Few, minor adverse events (i.e., mild dizziness, headache or nausea)”, the ECG abnormalities reported [2, 3] was “few ECG abnormalities (i.e., intraventricular conduction defect, frequent ventricular complexes and ectopic supraventricular rhythm)” and the “Premature discontinuation of the study” value ([2]; 5 mg or 10 mg of Compound I daily or placebo) was “No subjects needed to discontinue the study prematurely”. For the same molecule, the Safety and tolerability ([2]; oral daily dose of 5 mg for 9-14 days) was “safe and well-tolerated”, the Safety and tolerability ([2]; oral daily dose of 10 mg for 9-14 days) was “safe and well-tolerated” and the “Pharmacokinetic plasma concentration of Compound I” value ([1]; 0.5 hours post-dose) was 0.303 and 0.567 and <LLOQ < (0.150) (4×) and 1.090 and 0.893. The “Pharmacokinetic plasma concentration of Compound I” value ([1]; 1 hour post-dose) was 1.310 and 0.592 and 2.980 and 2.080 and <LLOQ < (0.150) (2×) and 1.570 and 0.743, the “Pharmacokinetic plasma concentration of Compound I” value ([1]; 2 hours post-dose) was 2.030 and 0.310 and 8.530 and 1.530 and 0.753 and 1.820 and 0.180 and 2.180 and the “Pharmacokinetic plasma concentration of Compound I” value ([1]; 2.5 hours post-dose) was 0.412 and 1.550 and 1.350 and 5.250 and 1.340 and 1.500 and 0.206 and 1.070. For the same molecule, the “Pharmacokinetic plasma concentration of Compound I” value ([1]; 3 hours post-dose) was 2.080 and 1.690 and 1.260 and 1.440 and 4.270 and 1.640 and 4.430 and 0.197, the “Pharmacokinetic plasma concentration of Compound I” value ([1]; 4 hours post-dose) was 1.180 and 2.460 and 0.712 and 0.508 and 1.500 and 0.520 and 1.540 and <LLOQ < (0.150) and the “Pharmacokinetic plasma concentration of Compound I” value ([1]; 6 hours post-dose) was 0.448 and 0.891 and 0.179 and <LLOQ < (0.150) (3×) and 0.372 and 0.389. The “Pharmacokinetic plasma concentration of Compound I” value ([1]; 10 hours post-dose) was “<LLOQ < (0.150)”, the “Pharmacokinetic plasma concentration of Compound I” value ([1]; 12 hours post-dose) was “<LLOQ < (0.150)” and the “Pharmacokinetic plasma concentration of Compound I” value ([1]; 15 hours post-dose) was “<LLOQ < (0.150)”. For the same molecule, the “Pharmacokinetic plasma concentration of Compound I” value ([1]; 18 hours post-dose) was “<LLOQ < (0.150)”, the “Pharmacokinetic plasma concentration of Compound I” value ([1]; 24 hours post-dose) was “<LLOQ < (0.150)” and the “Pharmacokinetic plasma concentration of Compound I” value ([1]; Pre-dose) was “<LLOQ < (0.150)”.

From patent US20170326146A1, “METHODS OF TREATING HEPATITIS B INFECTIONS AND RELATED DOSAGE REGIMES” (ContraVir Pharmaceuticals, Inc., priority 2016, published 2017)
